# Assay results published in patent US10544103B2, “5-HT2 antagonists” (ANAMAR AB, priority 2015, dated 2020).
# Legend:
# [1] = tested on: bleomycin-induced pulmonary fibrosis; test: Bleomycin-induced pulmonary fibrosis model in mice; type: in vivo, mice (C57BL/6); settings: 28 days
# Description: Pulmonary fibrosis was induced in female C57BL/6 mice by intratracheal instillation of bleomycin in saline (50 uL, 0.5 mg/mL). Treatment was initiated at the day of intratracheal instillation and continued to day 28. The mice (8 animals/group) were orally treated twice daily with 25 or 75 mg/kg (R)-3-(2-Hydroxyphenyl)-4-methyl-4,5-dihydro-1H-pyrazole-1-carboximidamide (Example 36, Compound 3) dissolved in ddH2O. Nintedanib at 30 mg/kg in ddH2O, p.o., twice daily, was used as a positive control. Vehicle-treated bleomycin-challenged mice and vehicle-treated non-fibrotic mice served as controls. The animals were sacrificed after 28 days and the fibrotic area of the lung was determined by histological evaluation of Sirius Red-stained sections according to standard protocol. The collagen content of lung tissue was measured using the hydroxyproline collagen assay and the number of myofibroblasts was quantified by staining for α-smooth muscle actin (α-SMA) in paraffin embedded sections.
# [2] = tested on: Normal human lung fibroblasts (NHLF); test: Collagen production in normal human lung fibroblasts (PIP ELISA); type: cell-based; settings: 1 and 10 μM; stimulation with 5 ng/mL TGF-β1 and 5-HT; 48 hours
# Description: Normal human lung fibroblasts (NHLF, Lonza) were cultured in FGM-2 full medium (+FBS) according to manufacturer's instructions. When confluent, cells were seeded onto 24-well tissue culture plates at 100.000 cells/well (4 wells per condition), until reaching confluence. Once cells were confluent they were serum starved overnight in serum free FGM-2 medium. After 16 hours the serum free medium was removed and cells were treated with (R)-3-(2-hydroxyphenyl)-4-methyl-4,5-dihydro-1H-pyrazole-1-carboximidamide (Example 36, Compound 3) at 1 and 10 μM (vehicle ddH2O). The cells were then stimulated with 5 ng/mL human recombinant TGF-β1 alone or in combination with 1 μM or 10 μM 5-HT. All stimuli were prepared in serum free FGM-2 media (1 mL volume/well). Unstimulated cells received serum free FGM-2 medium alone. After 48 hours the supernatants were collected and stored at −80° C. Collagen production was analyzed in supernatants using procollagen type I C-peptide (PIP) ELISA (Takara Bio # MK1010). Cell viability was tested using a LDH assay (Abcam # Ab102526).
# TNF-α plasma levels = test: Reduction of TNF-α plasma levels in LPS-induced acute inflammation in mice; type: in vivo, mice (BALB/c); settings: for TNF-α: plasma 90 min after LPS
# Description: Reduction of TNF-α plasma levels in the LPS-induced acute inflammation in mice was used to determine the in vivo anti-inflammatory properties of the compounds.
# Mice (BALB/c, female, approx. 20 g, 8 mice/group) were treated with the test compound perorally (10 or 30 mg/kg in water) 30 min prior to LPS treatment (10 ug in saline, intraperitoneally, serotype 055:B5). Alternatively, the test compound was administered subcutaneously in the neck (10 or 30 mg/kg in 10% PEG400 in saline) 15 min prior to LPS treatment. Blood samples were collected 90 min after LPS treatment and plasma TNF-α concentrations were determined in duplicates by ELISA.
# 5-HT2B receptor [3] = biological target: T1, 5-HT2B receptor (Homo sapiens, UniProt P41595); test: 5-HT2B receptor antagonism, inhibition of 5-HT stimulated IP-1 accumulation (HTRF) in CHO-K1 cells; type: cell-based; settings: % inhibition of 5-HT (5 nM) induced effect
# T1 construct: host or cells: CHO-K1
# Description: (§1) 5-HT2B receptor antagonism (performed at Eurofins Panlabs Taiwan, Ltd.) was determined in CHO-K1 cells expressing human receptor protein as inhibition of 5-HT (5 nM) stimulated IP-1 accumulation measured by HTRF quantitation. SB 206553 was used as a standard reference compound. The antagonistic response is expressed as % inhibition of the 5-HT induced effect.
# 5-HT2B receptor [4] = biological target: T1, 5-HT2B receptor; test: 5-HT2B receptor agonism, IP-1 accumulation in CHO-K1 cells without prior 5-HT stimulation; type: cell-based; settings: % of IP-1 accumulation induced by 5-HT (1 uM)
# Description: as §1
# 5-HT2B receptor agonism (performed at Eurofins Panlabs Taiwan, Ltd.) was determined in the same model as described above in Ex. 117. without prior stimulation with 5-HT. The agonistic response is expressed as % of the IP-1 accumulation induced by 5-HT (1 uM) stimulation.
# 5-HT2B receptor [5] = biological target: T1, 5-HT2B receptor; test: 5-HT2B receptor binding, 3H-LSD ligand displacement assay; settings: for inhibition at 0.01 µM: 0.01 uM compound; for inhibition at 0.1 µM: 0.1 uM compound; for inhibition at 1 µM: 1 uM compound
# Description: 5-HT2B receptor binding (performed at Eurofins Panlabs Taiwan, Ltd.) to human receptor protein expressed in CHO-K1 cells was determined in a ligand displacement assay using ^3H-lysergic acid diethylamide (LSD) as radioligand and ketanserine as a standard reference compound. Data is presented as % displacement of radioligand at indicated compound concentrations, see Table 1 and Table 2.
# T1 sequence (P41595 whole entry): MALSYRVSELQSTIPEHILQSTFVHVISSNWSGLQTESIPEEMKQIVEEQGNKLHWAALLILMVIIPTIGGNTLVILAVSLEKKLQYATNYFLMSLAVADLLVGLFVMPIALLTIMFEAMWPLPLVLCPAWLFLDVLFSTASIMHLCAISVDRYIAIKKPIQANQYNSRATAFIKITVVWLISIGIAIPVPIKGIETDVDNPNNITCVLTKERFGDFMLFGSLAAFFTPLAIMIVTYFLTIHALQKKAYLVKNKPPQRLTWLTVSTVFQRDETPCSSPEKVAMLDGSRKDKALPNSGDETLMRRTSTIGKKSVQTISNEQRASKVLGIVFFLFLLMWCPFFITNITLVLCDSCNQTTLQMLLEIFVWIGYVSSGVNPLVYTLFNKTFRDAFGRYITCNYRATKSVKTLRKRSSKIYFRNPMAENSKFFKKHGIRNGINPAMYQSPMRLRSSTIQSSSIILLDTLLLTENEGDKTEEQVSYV
SMILES,inhibition at 0.01 µM (5-HT2B receptor [3]) [%],inhibition at 0.1 µM (5-HT2B receptor [3]) [%],inhibition at 1 µM (5-HT2B receptor [3]) [%],inhibition at 10 µM (5-HT2B receptor [3]) [%],activation at 0.01 µM (5-HT2B receptor [4]) [%],activation at 0.1 µM (5-HT2B receptor [4]) [%],activation at 1 µM (5-HT2B receptor [4]) [%],activation at 10 µM (5-HT2B receptor [4]) [%],inhibition at 0.001 µM (5-HT2B receptor [3]) [%],activation at 0.001 µM (5-HT2B receptor [4]) [%],inhibition at 0.1 µM (5-HT2B receptor [5]) [%],inhibition at 1 µM (5-HT2B receptor [5]) [%],further results
"COC(=O)c1ccc2c(c1)NC(=O)/C2=C(\Nc1ccc(N(C)C(=O)CN2CCN(C)CC2)cc1)c1ccccc1 [Nintedanib, reference compound]",,,,,,,,,,,,,Fibrotic area (A) ([1]; 30 mg/kg bid p.o.): reduced the fibrotic area; Hydroxyproline content (C) ([1]; 30 mg/kg bid p.o.): reduced the hydroxyproline content; Myofibroblast differentiation (B) ([1]; 30 mg/kg bid p.o.): inhibited myofibroblast differentiation
"C[C@@H]1CN(C(=N)N)N=C1c1ccccc1O (single isomer, unassigned) [Example 36]",,,,,,,,,,,,,"Changes in any of the outcomes (fibrotic area, myofibroblasts, hydroxyproline) ([1]; 25 mg/kg bid oral): No statistically significant changes; Fibrotic area (A) ([1]; 75 mg/kg bid oral): reduced the fibrotic area; Hydroxyproline content (C) ([1]; 75 mg/kg bid oral): reduced the hydroxyproline content; Myofibroblast differentiation (B) ([1]; 75 mg/kg bid oral): inhibited myofibroblast differentiation; Production of collagens (in words) [2]: significantly reduced the production of collagens"
"CC(C)c1cc(-c2ccc(F)c3ccccc23)nc(N)n1 [RS127445, reference compound]",,,,,,,,,,,,,TNF-α (TNF-α plasma levels; 10 mg/kg s.c. (PEG400/saline)): 3215 pg/mL
"Cl.N=C(N)N1CCC(c2ccccc2O)=N1 [Example 3, 3-(2-Hydroxyphenyl)-4,5-dihydro-1H-pyrazole-1-carboximidamide]",14,38,96,103,1,-2,-2,-7,,,,,TNF-α (TNF-α plasma levels; 10 mg/kg p.o. (water)): 5767 pg/mL; TNF-α (TNF-α plasma levels; 30 mg/kg p.o. (water)): 3992 pg/mL; Effect on TNF-α plasma levels (in words) (TNF-α plasma levels; p.o. administration): dose-dependently reduced TNF-α plasma levels
"CC1CN(C(=N)N)N=C1c1ccccc1O.Cl (centres unmarked) [Example 17, 3-(2-Hydroxyphenyl)-4-methyl-4,5-dihydro-1H-pyrazole-1-carboximidamide]",70,96,100,103,3,7,2,-2,31,1,91,100,inhibition at 0.01 µM (5-HT2B receptor [5]): 54%; inhibition at 10 µM (5-HT2B receptor [5]; 10 uM compound): 100%; TNF-α (TNF-α plasma levels; 10 mg/kg p.o. (water)): 4139 pg/mL; TNF-α (TNF-α plasma levels; 10 mg/kg s.c. (PEG400/saline)): 2708 pg/mL; TNF-α (TNF-α plasma levels; 30 mg/kg p.o. (water)): 4062 pg/mL; TNF-α (TNF-α plasma levels; 30 mg/kg s.c. (PEG400/saline)): 1397 pg/mL; Effect on TNF-α plasma levels (in words) (TNF-α plasma levels; p.o. administration): reduced TNF-α levels; Effect on TNF-α plasma levels (in words) (TNF-α plasma levels; subcutaneous (s.c.) administration): dose-dependent effects; Anti-inflammatory effect compared with the reference compound (TNF-α plasma levels; versus RS127545 (so in the source)): equal or higher anti-inflammatory effects
"N=C(NCc1ccccc1)N1CCC(c2ccccc2O)=N1 [Example 22, N-Benzyl-3-(2-hydroxyphenyl)-4,5-dihydro-1H-pyrazole-1-carboximidamide]",28,88,108,110,-10,-1,-3,-2,14,-5,89,102,
"C[C@@H]1CN(C(=N)N)N=C1c1cccc(Cl)c1O (single isomer, unassigned) [Example 73, (R)*-3-(3-chloro-2-hydroxyphenyl)-4-methyl-4,5-dihydro-1H-pyrazole-1-carboximidamide]",97,97,98,,3,3,,,87,4,99,,inhibition at 0.0001 µM (5-HT2B receptor [3]; 0.0001 uM): 29%; activation at 0.0001 µM (5-HT2B receptor [4]; 0.0001 uM): 3%; inhibition at 0.001 µM (5-HT2B receptor [5]; 0.001 uM compound): 49%; inhibition at 0.01 µM (5-HT2B receptor [5]): 83%
"N=C(N)N1CCC(c2cccc3ccccc23)=N1 [Example 9, 3-(Naphthalen-1-yl)-4,5-dihydro-1H-pyrazole-1-carboximidamide]",20,76,103,116,-8,-8,-13,-5,6,-3,81,99,
